Results from patent US20220249438A1, “CARBOCYANINE COMPOUNDS FOR TARGETING MITOCHONDRIA AND ERADICATING CANCER STEM CELLS” (LUNELLA BIOTECH, INC., priority 2019, published 2022).
Like-named read-outs stand apart in the source and are kept apart here.

Assays:
MCF7 cells [1] = assay: Metabolic flux analysis (Seahorse XFe96, OCR/ECAR), MCF7; type: cell-based, Human; details: for ECAR levels / basal and maximal OCR, ATP production: adherent MCF7; for basal and maximal OCR, ATP production: 16 hours, versus vehicle-alone control
Procedure: (§1) FIGS. 4A-4D show the metabolic flux analysis results in MCF7 cells, FIGS. 5A-5D show the metabolic flux analysis results in MDA-MB-231 cells, and FIGS. 6A-6D show the metabolic flux analysis results in MDA-MB-468 cells.
(§2) In addition to metabolic flux analysis, glycolytic function was analyzed at different concentrations of MTDR. This included extracellular acidification rate (ECAR) measurements, glycolysis, glycolytic capacity, and glycolytic reserve. FIGS. 7A-7D show the results of glycolytic function in MCF7 cells, including ECAR, glycolysis, glycolytic capacity, and glycolytic reserve, respectively. FIGS. 8A-8D show the results of glycolytic function in MDA-MB-231 cells, including ECAR, glycolysis, glycolytic capacity, and glycolytic reserve, respectively. FIGS. 9A-9D show the results of glycolytic function in MDA-MB-468 cells, including ECAR, glycolysis, glycolytic capacity, and glycolytic reserve, respectively.
To examine the effects of HITC and DDI on mitochondrial respiration and aerobic glycolysis, adherent MCF7 were treated with each compound, and then OCR and ECAR were measured. […] After treatment, the mitochondrial oxygen consumption rate (OCR) was measured using the Seahorse XFe96 analyzer. Data is expressed as percentage of OCR versus control. All data was normalized for cell number. Statistical analysis was conducted using one-way ANOVA.
(§3) Metabolic Flux Analysis: Extracellular acidification rates and oxygen consumption rates were analyzed using the Seahorse XFe96 analyzer (Agilent/Seahorse Bioscience, USA). Cells were maintained in DMEM supplemented with 10% FBS (fetal bovine serum), 2 mM GlutaMAX, and 1% Pen-Strep. Forty-thousand breast cancer cells were seeded per well, into XFe96-well cell culture plates, and incubated at 37° C. in a 5% CO2 humidified atmosphere. After 24-48 hours, MCF7 cells were washed in pre-warmed XF assay media, as previously described. ECAR and OCR measurements were normalized for cell protein content, by the SRB colorimetric assay. Data sets were analyzed using XFe96 software and Excel software.

MCF7 cells [2] = assay: 3D-mammosphere formation assay, MCF7; type: cell-based, Human
Text: (§4) In order to assess the effects of MTDR on CSC propagation, the mammosphere assay was used as a functional readout of “stemness” and 3D anchorage-independent growth. As CSCs are highly-resistant to many types of cell stress, they can undergo anchorage-independent propagation, under low-attachment conditions. […] These “mammospheres” are highly enriched in CSCs and progenitor-like cells, and highly resemble the morula stage of embryonic development, a solid ball of cells without a hollow lumen. Under these culture conditions of non-attachment, the majority of epithelioid cancer cells die, via an unusual form of apoptosis, known as anoikis.
(§5) As a consequence, the growth of 3D spheroids provides functional culture conditions to select for a population of epithelioid CSCs, with EMT properties. As such this provides an ideal assay for identifying small molecules that can target the anchorage-independent growth of CSCs.
(§6) 3D-Mammosphere Formation Assay: A single cell suspension was prepared using enzymatic (1× Trypsin-EDTA, Sigma Aldrich, cat. #T3924), and manual disaggregation (25 gauge needle). Five thousand cells were plated with in mammosphere medium (DMEM-F12/B27/20 ng/ml EGF/PenStrep), under non-adherent conditions, in six wells plates coated with 2-hydroxyethylmethacrylate (poly-HEMA, Sigma, cat. #P3932). […]

MDA-MB-231 cells [3] = details: MDA-MB-231 mammosphere formation
Text: as §4, §5, §6

MDA-MB-468 cells [4] = details: read-out: IC-50, 3D sphere formation
Text: as §4, §5, §6

MDA-MB-231 cells [5] = details: MDA-MB-231 monolayer
Procedure: as §1, §2, §3

MDA-MB-468 cells [6] = details: MDA-MB-468 monolayer
Procedure: as §1, §2, §3

MCF7 cells [7] = details: read-out: IC-50, cell viability; MCF7 monolayer; Hoechst 33342; 1 nM to 1 μM; FIG. 10
Procedure: (§7) A Hoechst-based viability assay was used to characterize the selectivity of MTDR for the preferential targeting of cancer cells. Briefly, MCF7, MDA-MB-231 and MDA-MB-468 cell monolayers were treated with MTDR, at concentrations ranging from 1 nM to 1 μM, for a period of one day. Cell viability was assessed using Hoechst 33342, a nuclear dye that stains DNA in live cells. The viability of normal human fibroblasts (hTERT-BJ1) treated with MTDR was also assessed in parallel. Quantitation was performed with a plate-reader.
(§8) MCF7, MDA-MB-231 and MDA-MB-468 cell monolayers were treated with MTDR for a period of 72 hours, and viability was assessed using Hoechst 33342, a nuclear dye that stains DNA in live cells. Effects of MTDR on the viability in normal human fibroblasts (hTERT-BJ1) were assessed in parallel.

MDA-MB-231 cells [8] = details: read-out: IC-50, cell viability; MDA-MB-231 monolayer; Hoechst 33342; 1 nM to 1 μM; FIG. 10
Procedure: as §7, §8

MDA-MB-468 cells [9] = details: read-out: IC-50, cell viability; MDA-MB-468 monolayer; Hoechst 33342; 1 nM to 1 μM; FIG. 10
Procedure: as §7, §8

[10] = tested on: normal human fibroblasts (hTERT-BJ1); details: for IC50: hTERT-BJ1, Hoechst 33342
Procedure: as §7, §8

[11] = in vivo; cited from earlier work

CN1\C(=C/C=C/C=C/C=C/C2=[N+](C)c3ccccc3C2(C)C)C(C)(C)c2ccccc21 [HITC]
ECAR levels (MCF7 cells [1]): increased significantly, at 500 and 1000 nM
basal and maximal OCR, ATP production (MCF7 cells [1]): significantly inhibited

CN1C(=CC=CC=CC2=[N+](Cc3ccc(CCl)cc3)c3ccccc3C2(C)C)C(C)(C)c2ccccc21.[Cl-] [MTDR, 1-{4-[(chloromethyl)phenyl]methyl}-3,3-dimethyl-2-[5-(1,3,3-trimethyl-1,3-dihydro-2H-indol-2-ylidene)penta-1,3-dien-1-yl]-3H-indolium chloride]
IC50 (MCF7 cells [2]; MCF7, MTDR 1 nM to 1,000 nM, 5 days, read-out: IC-50, 3D anchorage-independent growth (mammosphere formation)): < 100 nM
concentrations inhibiting anchorage-independent growth (MDA-MB-231 cells [3]): above 100 nM
IC50 (MDA-MB-468 cells [4]): ~50 nM
concentration from which near complete inhibition of mitochondrial function and ATP production (MCF7 cells [1]; MCF7 monolayer, OCR): ≥ 500 nM
effect on glycolysis (ECAR) (MCF7 cells [1]; MCF7 monolayer, up to 1 μM): no effect on glycolysis
concentration from which near complete inhibition of mitochondrial function and ATP production (MDA-MB-231 cells [5]; OCR): ≥ 500 nM
concentration from which mild-to-moderate inhibition of glycolysis (MDA-MB-231 cells [5]; no significant effect up to 100 nM): ≥ 500 nM
concentration from which near complete inhibition of mitochondrial function and ATP production (MDA-MB-468 cells [6]; OCR): ≥ 500 nM
effect on glycolysis (ECAR) (MDA-MB-468 cells [6]; up to 1 μM): no effect on glycolysis
IC50 (MCF7 cells [7]): 90.7 nM
IC50 (MDA-MB-231 cells [8]): 399 nM
IC50 (MDA-MB-468 cells [9]): 432 nM
IC50 ([10]; read-out: IC-50, cell viability, 1 nM to 1 μM, FIG. 10): 468 nM
IC50 ([10]; read-out: IC-50, normal cell viability, 72 hours): 1000 nM
potency and selectivity for breast cancer cells relative to normal fibroblasts ([10]; viability, 72 hours): 10 times

CCN1/C(=C/C=C/C=C/c2ccc3ccccc3[n+]2CC)C=Cc2ccccc21 [DDI]
ECAR levels (MCF7 cells [1]): did not affect
basal and maximal OCR, ATP production (MCF7 cells [1]): did not affect

CCCN1/C(=C/C=C2\CCCC(/C=C/C3=[N+](CCC)c4ccccc4C3(C)C)=C2Cl)C(C)(C)c2ccccc21 [IR-780]
concentrations with significant inhibition of CSC propagation (3D-mammosphere formation) (MCF7 cells [2]; non-adherent MCF7, 1, 50, 100, 500, 1000 nM, five days): not effective
half-life in serum [11]: minutes to hour
